# Procedure: Preparation of curcumin in coconut oil. To a round bottom flask with a magnetic stir bar, 20 mg of curcumin and 25 mL (23000 mg) of coconut oil were added. The flask was placed in a water bath at 40° C. and the mixture was stirred for 30 min. The sample was then cooled to room temperature and centrifuged to remove non-dissolved residue of curcumin.
# (§1) The sample was then cooled to room temperature and used for the next studies.
# as §1
smiles,measurement,value
COc1cc(/C=C/C(=O)CC(=O)/C=C/c2ccc(O)c(OC)c2)ccc1O [curcumin],solubility (concentration) in coconut oil,around 0.08 wt %
